Measurements as given in patent publication US10597383B2, “Bicyclic proline compounds” (Genentech, Inc., priority 2016, dated 2020).

Target: human TRPA1 (Homo sapiens (Human), UniProt O75762)
Experiment: hTRPA1 CHO Ca2+ AUC EVO (IC50); FLIPR Tetra block of cinnamaldehyde induced calcium influx
Assay type: cell-based
Conditions: CHO cells expressing TRPA1, 75 uM cinnamaldehyde (~EC80) as agonist
Method: IC50 ([…]) of compounds on the human and rat TRPA1 channels were determined using a FLIPR Tetra instrument. CHO cells expressing TRPA1 were plated into 384-well plates, incubated overnight at 37° C., and loaded with BD calcium indicator dye for 1 hr at 37° C. followed by 15 minutes. at room temperature. The assay buffer was Hank's Balanced Salt Solution (HBSS) containing 20 mM HEPES (pH readjusted to 7.4) along with 0.02% BSA.
Following dye load and plate cool down, compounds were added to the cells using FLIPR Tetra. Plates were then incubated with compounds for 20 minutes at room temperature prior to adding agonist. Following this incubation, ˜EC80 concentration of cinnamaldehyde (75 uM for human TRPA1 and 45 uM for rat TRPA1) was added to active the channels and block of cinnamaldehyde induced calcium influx was measured.
IC50 values were fit with a standard Hill function, keeping the Hill coefficient (n) fixed to 1.5. Fixing the Hill coefficient will generally reduce variability of the IC50 determination. The IC50 values were individually examined to make sure the MIN and MAX points were set correctly prior to validation of the results.

human TRPA1, sequence (O75762 whole entry): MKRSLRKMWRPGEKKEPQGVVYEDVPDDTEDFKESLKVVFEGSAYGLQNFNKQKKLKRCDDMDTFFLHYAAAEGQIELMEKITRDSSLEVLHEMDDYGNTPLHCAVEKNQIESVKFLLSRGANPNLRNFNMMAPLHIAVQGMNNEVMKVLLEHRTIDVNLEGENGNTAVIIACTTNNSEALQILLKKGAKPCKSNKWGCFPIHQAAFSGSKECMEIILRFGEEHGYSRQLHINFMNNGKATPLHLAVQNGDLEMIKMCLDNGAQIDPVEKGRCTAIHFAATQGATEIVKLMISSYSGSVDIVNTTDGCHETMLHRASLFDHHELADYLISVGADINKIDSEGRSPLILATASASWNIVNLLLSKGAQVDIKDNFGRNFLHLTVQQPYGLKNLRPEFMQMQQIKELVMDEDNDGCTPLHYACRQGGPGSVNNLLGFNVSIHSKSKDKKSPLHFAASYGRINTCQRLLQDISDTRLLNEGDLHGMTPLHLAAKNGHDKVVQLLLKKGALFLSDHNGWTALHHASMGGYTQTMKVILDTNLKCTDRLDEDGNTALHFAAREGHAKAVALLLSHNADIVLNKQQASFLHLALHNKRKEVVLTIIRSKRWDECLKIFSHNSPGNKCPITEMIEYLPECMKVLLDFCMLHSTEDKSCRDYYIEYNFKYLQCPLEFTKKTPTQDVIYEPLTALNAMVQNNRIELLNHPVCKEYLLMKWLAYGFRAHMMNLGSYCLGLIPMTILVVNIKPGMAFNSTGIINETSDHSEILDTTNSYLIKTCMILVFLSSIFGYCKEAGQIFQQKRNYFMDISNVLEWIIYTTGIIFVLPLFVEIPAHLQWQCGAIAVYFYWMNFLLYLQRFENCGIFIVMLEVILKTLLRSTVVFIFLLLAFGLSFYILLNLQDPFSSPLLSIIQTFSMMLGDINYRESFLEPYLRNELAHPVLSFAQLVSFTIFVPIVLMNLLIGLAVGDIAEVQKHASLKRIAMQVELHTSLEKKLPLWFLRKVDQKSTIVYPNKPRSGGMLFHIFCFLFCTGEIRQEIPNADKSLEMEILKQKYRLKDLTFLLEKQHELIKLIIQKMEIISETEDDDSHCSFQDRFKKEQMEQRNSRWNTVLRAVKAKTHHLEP

| SMILES | IC50 (Table 1) | IC50 (Table 3) |
| --- | --- | --- |
| O=C(NCc1cc(-c2cnc(C(F)(F)F)nc2)c(F)cn1)[C@@H]1C2CC(C2)N1S(=O)(=O)c1cc2cc(F)ccc2o1 | 1.08 nM |  |
| O=C(NCc1cc(-c2cnc(C(F)(F)F)nc2)ccc1F)[C@@H]1C2CC(C2)N1S(=O)(=O)c1ccc(F)cc1 [(2S)-3-(4-fluorophenyl)sulfonyl-N-[[2-fluoro-5-[2-(trifluoromethyl)pyrimidin-5-yl]phenyl]methyl]-3-azabicyclo[2.1.1]hexane-2-carboxamide] | 9.89 nM |  |
| O=C(NCc1cc(F)cc(-c2cnc(C(F)(F)F)nc2)c1)[C@@H]1C2CC(C2)N1S(=O)(=O)c1ccc(F)cc1 [(2S)-3-(4-fluorophenyl)sulfonyl-N-[[3-fluoro-5-[2-(trifluoromethyl)pyrimidin-5-yl]phenyl]methyl]-3-azabicyclo[2.1.1]hexane-2-carboxamide] | 8.97 nM |  |
| O=C(NCc1cc(-c2cnc(C(F)(F)F)nc2)ncc1OC(F)(F)F)[C@@H]1C2CC(C2)N1S(=O)(=O)c1ccc(F)cc1 [(2S)-3-(4-fluorophenyl)sulfonyl-N-[[5-(trifluoromethoxy)-2-[2-(trifluoromethyl)pyrimidin-5-yl]-4-pyridyl]methyl]-3-azabicyclo[2.1.1]hexane-2-carboxamide] | 2.77 nM |  |
| O=C(NCc1cc(-c2cnc(C(F)(F)F)nc2)ncc1C(F)(F)F)[C@@H]1C2CC(C2)N1S(=O)(=O)c1ccc(F)cc1 [(2S)-3-(4-fluorophenyl)sulfonyl-N-[[5-(trifluoromethyl)-2-[2-(trifluoromethyl)pyrimidin-5-yl]-4-pyridyl]methyl]-3-azabicyclo[2.1.1]hexane-2-carboxamide] | 2.61 nM |  |
| O=C(NCc1cc(-c2cnc(C(F)(F)F)nc2)ncc1C(F)(F)F)[C@@H]1C2CC(C2)N1S(=O)(=O)c1cc2cc(F)ccc2o1 [(2S)-3-(5-fluorobenzofuran-2-yl)sulfonyl-N-[[5-(trifluoromethyl)-2-[2-(trifluoromethyl)pyrimidin-5-yl]-4-pyridyl]methyl]-3-azabicyclo[2.1.1]hexane-2-carboxamide] | 1.85 nM |  |
| O=C(NCc1cc(Cl)nc(-c2cnc(C(F)(F)F)nc2)c1)[C@@H]1C2CC(C2)N1S(=O)(=O)c1ccc(F)cc1 [(2S)-N-[[2-chloro-6-[2-(trifluoromethyl)pyrimidin-5-yl]-4-pyridyl]methyl]-3-(4-fluorophenyl)sulfonyl-3-azabicyclo[2.1.1]hexane-2-carboxamide] | 4.64 nM |  |
| O=C(NCc1cc(-c2cnc(C(F)(F)F)nc2)nc(C2CC2)n1)[C@@H]1C2CC(C2)N1S(=O)(=O)c1ccc(F)cc1 [(2S)-N-[[2-cyclopropyl-6-[2-(trifluoromethyl)pyrimidin-5-yl]pyrimidin-4-yl]methyl]-3-(4-fluorophenyl)sulfonyl-3-azabicyclo[2.1.1]hexane-2-carboxamide] | 2.15 nM |  |
| O=C(NCc1cc(-c2cnc(C(F)(F)F)nc2)ncc1C(F)F)[C@@H]1C2CC(C2)N1S(=O)(=O)c1ccc(F)c(F)c1 [(2S)-N-[[5-(difluoromethyl)-2-[2-(trifluoromethyl)pyrimidin-5-yl]-4-pyridyl]methyl]-3-(3,4-difluorophenyl)sulfonyl-3-azabicyclo[2.1.1]hexane-2-carboxamide] | 9.01 nM |  |
| O=C(NCc1cc(-c2cnc(C(F)(F)F)nc2)ncc1C(F)F)[C@@H]1C2CC(C2)N1S(=O)(=O)c1ccc(F)cc1 [(2S)-N-[[5-(difluoromethyl)-2-[2-(trifluoromethyl)pyrimidin-5-yl]-4-pyridyl]methyl]-3-(4-fluorophenyl)sulfonyl-3-azabicyclo[2.1.1]hexane-2-carboxamide] | 9.92 nM |  |
| O=C(NCc1cc(-c2cnc(C(F)(F)F)nc2)ncc1Br)[C@@H]1C2CC(C2)N1S(=O)(=O)c1ccc(F)cc1 [(2S)-N-[[5-bromo-2-[2-(trifluoromethyl)pyrimidin-5-yl]-4-pyridyl]methyl]-3-(4-fluorophenyl)sulfonyl-3-azabicyclo[2.1.1]hexane-2-carboxamide] | 3.82 nM |  |
| O=C(NCc1cc(-c2cnc(C(F)(F)F)nc2)ncc1Cl)[C@@H]1C2CC(C2)N1S(=O)(=O)c1ccc(F)c(F)c1 [(2S)-N-[[5-chloro-2-[2-(trifluoromethyl)pyrimidin-5-yl]-4-pyridyl]methyl]-3-(3,4-difluorophenyl)sulfonyl-3-azabicyclo[2.1.1]hexane-2-carboxamide] | 1.55 nM |  |
| O=C(NCc1cc(-c2cnc(C(F)(F)F)nc2)cc(C2CC2)n1)[C@@H]1C2CC(C2)N1S(=O)(=O)c1ccc(F)cc1 [(2S)-N-[[6-cyclopropyl-4-[2-(trifluoromethyl)pyrimidin-5-yl]-2-pyridyl]methyl]-3-(4-fluorophenyl)sulfonyl-3-azabicyclo[2.1.1]hexane-2-carboxamide] | 7.24 nM |  |
| O=C(NCc1cc(-c2cnc(C(F)(F)F)nc2)ncn1)[C@@H]1C2CC(C2)N1S(=O)(=O)c1ccc(F)cc1 [compound 1, (2S)-3-(4-fluorophenyl)sulfonyl-N-[[6-[2-(trifluoromethyl)pyrimidin-5-yl]pyrimidin-4-yl]methyl]-3-azabicyclo[2.1.1]hexane-2-carboxamide] |  | 42.9 nM |
| O=C(NCc1cc(-c2cnc(C(F)(F)F)nc2)ncc1F)[C@@H]1C2CC(C2)N1S(=O)(=O)c1ccc(F)cc1 [compound 2, (2S)-3-(4-fluorophenyl)sulfonyl-N-[[5-fluoro-2-[2-(trifluoromethyl)pyrimidin-5-yl]-4-pyridyl]methyl]-3-azabicyclo[2.1.1]hexane-2-carboxamide] |  | 11.3 nM |
| O=C(NCc1cc(-c2ccc(C(F)(F)F)nc2)ncn1)[C@@H]1C2CC(C2)N1S(=O)(=O)c1ccc(F)cc1 [compound 3, (2S)-3-(4-fluorophenyl)sulfonyl-N-[[6-[6-(trifluoromethyl)-3-pyridyl]pyrimidin-4-yl]methyl]-3-azabicyclo[2.1.1]hexane-2-carboxamide] |  | 24.8 nM |
| O=C(NCc1ccnc(-c2cnc(C(F)(F)F)nc2)c1)[C@@H]1C2CC(C2)N1S(=O)(=O)c1ccc(F)cc1 [compound 4, (2S)-3-(4-fluorophenyl)sulfonyl-N-[[2-[2-(trifluoromethyl)pyrimidin-5-yl]-4-pyridyl]methyl]-3-azabicyclo[2.1.1]hexane-2-carboxamide] |  | 36.4 nM |
| O=C(NCc1cc(Cl)nc(-c2cnc(C(F)(F)F)nc2)c1)[C@@H]1C2CC(C2)N1S(=O)(=O)c1ccc(F)cc1 [compound 5, (2S)-N-[[2-chloro-6-[2-(trifluoromethyl)pyrimidin-5-yl]-4-pyridyl]methyl]-3-(4-fluorophenyl)sulfonyl-3-azabicyclo[2.1.1]hexane-2-carboxamide] |  | 4.64 nM |
| O=C(NCc1cc(-c2cnc(C(F)(F)F)nc2)c(F)cn1)[C@@H]1C2CC(C2)N1S(=O)(=O)c1ccc(F)cc1 [compound 6, (2S)-3-(4-fluorophenyl)sulfonyl-N-[[5-fluoro-4-[2-(trifluoromethyl)pyrimidin-5-yl]-2-pyridyl]methyl]-3-azabicyclo[2.1.1]hexane-2-carboxamide] |  | 16.8 nM |
| O=C(NCc1cc(-c2cnc(C(F)(F)F)nc2)c(Cl)cn1)[C@@H]1C2CC(C2)N1S(=O)(=O)c1ccc(F)cc1 [compound 7, (2S)-N-[[5-chloro-4-[2-(trifluoromethyl)pyrimidin-5-yl]-2-pyridyl]methyl]-3-(4-fluorophenyl)sulfonyl-3-azabicyclo[2.1.1]hexane-2-carboxamide] |  | 20.8 nM |
| N#Cc1cnc(-c2cnc(C(F)(F)F)nc2)cc1CNC(=O)[C@@H]1C2CC(C2)N1S(=O)(=O)c1ccc(F)cc1 [compound 8, (2S)-N-[[5-cyano-2-[2-(trifluoromethyl)pyrimidin-5-yl]-4-pyridyl]methyl]-3-(4-fluorophenyl)sulfonyl-3-azabicyclo[2.1.1]hexane-2-carboxamide] |  | 16 nM |
| N#Cc1ccc(-c2cnc(C(F)(F)F)nc2)cc1CNC(=O)[C@@H]1C2CC(C2)N1S(=O)(=O)c1ccc(F)cc1 [compound 9, (2S)-N-[[2-cyano-5-[2-(trifluoromethyl)pyrimidin-5-yl]phenyl]methyl]-3-(4-fluorophenyl)sulfonyl-3-azabicyclo[2.1.1]hexane-2-carboxamide] |  | 17.1 nM |
| O=C(NCc1cc(-c2cnc(C(F)(F)F)nc2)nc(C2CC2)n1)[C@@H]1C2CC(C2)N1S(=O)(=O)c1ccc(F)cc1 [compound 10, (2S)-N-[[2-cyclopropyl-6-[2-(trifluoromethyl)pyrimidin-5-yl]pyrimidin-4-yl]methyl]-3-(4-fluorophenyl)sulfonyl-3-azabicyclo[2.1.1]hexane-2-carboxamide] |  | 2.15 nM |
| CC12CC(C1)[C@@H](C(=O)NCc1cc(-c3cnc(C(F)(F)F)nc3)c(F)cn1)N2S(=O)(=O)c1ccc(F)cc1 [compound 12, (2S)-3-(4-fluorophenyl)sulfonyl-N-[[5-fluoro-4-[2-(trifluoromethyl)pyrimidin-5-yl]-2-pyridyl]methyl]-4-methyl-3-azabicyclo[2.1.1]hexane-2-carboxamide] |  | 90.2 nM |
| O=C(NCc1cc(-c2cnc(C(F)(F)F)nc2)ncc1Cl)[C@@H]1C2CC(C2)N1S(=O)(=O)c1ccc(F)c(F)c1 [compound 13, (2S)-N-[[5-chloro-2-[2-(trifluoromethyl)pyrimidin-5-yl]-4-pyridyl]methyl]-3-(3,4-difluorophenyl)sulfonyl-3-azabicyclo[2.1.1]hexane-2-carboxamide] |  | 1.55 nM |
| O=C(NCc1cc(-c2cnc(C(F)(F)F)nc2)ncc1Br)[C@@H]1C2CC(C2)N1S(=O)(=O)c1ccc(F)cc1 [compound 14, (2S)-N-[[5-bromo-2-[2-(trifluoromethyl)pyrimidin-5-yl]-4-pyridyl]methyl]-3-(4-fluorophenyl)sulfonyl-3-azabicyclo[2.1.1]hexane-2-carboxamide] |  | 3.82 nM |
